# Assay results reported in US20100215777A1, “Malononitrile Compounds” (BASF SE, priority 2006, published 2010).
smiles,measurement,value
N#CC(C#N)(CCCSC(F)(F)F)CC(F)(F)C(F)(F)C(F)(F)C(F)(F)C(F)(F)F,melting point,88 to 90 °C
